The subject of this experiment is bacteria. The experiment can be described thus: Antibacterial activity. In kind it is cell-based.

Take `COC1(C)CC(O[C@H]2[C@H](C)[C@@H](OC3OC(C)CC(N(C)C)C3O)[C@](C)(O)C[C@@H](C)C(=O)[C@H](C)[C@@H](O)[C@](C)(O)[C@@H](CCF)OC(=O)[C@@H]2C)OC(C)C1O` (some centres unmarked) [15-fluoroerythromycin A, 15-Fluoroerythromycin A]: the antibacterial activity result is “strong antibacterial activity”.

As to `CCC[C@H]1OC(=O)[C@H](C)[C@@H](O[C@H]2C[C@@](C)(OC)[C@@H](O)[C@H](C)O2)[C@H](C)[C@@H](O[C@@H]2O[C@H](C)C[C@H](N(C)C)[C@H]2O)[C@](C)(O)C[C@@H](C)C(=O)[C@H](C)[C@@H](O)[C@]1(C)O` [15-methylerythromycin A], the antibacterial activity result is reported as “strong antibacterial activity”.

Values taken from US6492562B1, “Racemic thioesters for production of polyketides” (Kosan Biosciences, Inc., priority 1999, dated 2002).
